T1: GAT2 (γ-aminobutyric acid transporter 2, SLC6A13) (Rattus norvegicus, UniProt P31646)
T1 sequence (P31646 1-602): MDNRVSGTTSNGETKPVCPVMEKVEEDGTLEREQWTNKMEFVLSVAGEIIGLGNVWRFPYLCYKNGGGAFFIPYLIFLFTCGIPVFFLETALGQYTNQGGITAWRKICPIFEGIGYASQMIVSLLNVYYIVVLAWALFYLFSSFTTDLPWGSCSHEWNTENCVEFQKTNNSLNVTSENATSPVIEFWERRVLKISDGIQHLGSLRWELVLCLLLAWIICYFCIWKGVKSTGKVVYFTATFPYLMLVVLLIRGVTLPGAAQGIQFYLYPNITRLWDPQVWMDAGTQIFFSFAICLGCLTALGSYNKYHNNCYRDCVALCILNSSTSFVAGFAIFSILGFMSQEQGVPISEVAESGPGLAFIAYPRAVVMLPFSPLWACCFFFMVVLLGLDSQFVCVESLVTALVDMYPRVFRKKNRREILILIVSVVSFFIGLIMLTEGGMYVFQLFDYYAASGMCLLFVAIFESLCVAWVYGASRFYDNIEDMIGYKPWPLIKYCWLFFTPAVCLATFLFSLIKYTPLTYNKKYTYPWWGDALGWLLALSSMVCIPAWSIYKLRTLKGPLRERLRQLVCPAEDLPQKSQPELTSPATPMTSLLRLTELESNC


Legend:
[1] = molecular target: T1, GAT2 (γ-aminobutyric acid transporter 2, SLC6A13); test: cell-based; parameters: rat GAT2 open reading frame cRNA expressed in Xenopus laevis oocytes; species or system Xenopus laevis oocytes; Inhibition of [14C]GAA (45 uM) uptake by rat GAT2 cRNA-injected oocytes, 20 C, scintillation counting; settings: Oocyte; [14C]GAA 45 uM, 1 h, 20 C; read-out: % of control / 100±7
Description: Using T7 RNA polymerase, capped cRNA was transcribed from NotI-linearized pGEM-HEN containing an open reading frame of rat GAT2 cDNA. Defolliculated oocytes were injected with 23 nL water or the capped cRNA (30–50 ng) and incubated at 18°C in freshly prepared standard oocyte saline solution containing 100 mM NaCl, 2 mM KCl, 1.8 mM CaCl2, 1 mM MgCl2, and 5 mM HEPES, 25 µg/mL gentamycin, 2.5 mM pyruvate and 1% bovine serum albumin, pH 7.5. The standard oocyte saline solution used to incubate the oocytes was replaced with fresh solution daily. Experiments were performed after incubation for 4 to 6 days. For the uptake study by Xenopus laevis oocytes, oocytes were preincubated with 500 µL ND96 solution containing (in mM) 96 NaCl, 2 KCl, 1.8 CaCl2, 1 MgCl2, and 5 HEPES for 20 min at 20°C before the uptake experiment. The uptake experiment was initiated by replacing the ND96 solution with 200 µL of the same solution containing [^14C]GAA (45 µM) […] [^14C]creatine (45 µM). After incubation for a designated time at 20°C, the uptake was terminated by addition of ice-cold ND96 solution. […] The inhibitory effects of GAT substrates and inhibitors on the [^14C]GAA uptake were further examined (Figure 3B and Table 3).

[2] = system: T2, freshly isolated rat hepatocytes; test: cells; parameters: species or system primary rat hepatocytes; Inhibition of [14C]GAA (18 uM) uptake by freshly isolated rat hepatocytes, 37 C, scintillation counting; settings: Hepatocyte, 0.05 h, [14C]GAA 18 uM, 3 min, 37 C, read-out: % of control remaining
T2 construct: Wistar primary hepatocytes, collagenase perfusion
From the text: Rat hepatocytes were isolated by collagenase perfusion and Percoll isodensity centrifugation as described previously. The hepatocytes were resuspended in Tyrode buffer containing (in mM) 137 NaCl, 2.7 KCl, 1.05 MgCl2, 1.8 CaCl2, 12 NaHCO3, 0.4 NaH2PO4, and 5.6 D-glucose. Uptake of [^14C]GAA or [^14C]creatine by the freshly isolated hepatocytes was examined according to the methods described previously. In brief, after centrifugation and aspiration of the buffer, uptake was initiated by applying 100 µL Tyrode buffer containing [^14C]GAA or [^14C]creatine at 37°C in the presence or absence of inhibitors. Na^+-free Tyrode buffer was prepared by replacement of NaCl, NaH2PO4 and NaHCO3 with equimolar N-methyl-D-glucamine, KH2PO4, and KHCO3, respectively. Cl^−-free uptake buffer was prepared by replacement with equimolar gluconate. After a predetermined period, uptake was terminated by centrifugation of the solution. The cells were then solubilized in 1 N NaOH and subsequently neutralized with 1 N HCl. The cell-associated radioactivity and protein content were assayed by [compound left out] scintillation spectrometry and detergent compatible protein assay (a DC protein assay kit, Bio-Rad, Hercules, CA) with bovine serum albumin as a standard. […] In contrast, there was no time-dependent increase in [^14C]creatine uptake by hepatocytes (Figure 2A). […] The [^14C]GAA uptake took place in a concentration-dependent manner and consisted of a single saturable component (Figure 2B). […] In contrast, creatinine, betaine, guanidinosuccinic acid, L-arginine, L-alanine, and L-serine had much weaker effects. GABA, taurine, and creatine inhibited the [^14C]GAA uptake in a concentration-dependent manner with an IC50 value of 8.81±1.33 µM, 1.13±0.30 mM, and 1.42±0.53 mM, respectively (Figure 2C–E). […] Among the GAT subtypes, GAT2 is predominantly expressed in rat liver. […] [^14C]GAA uptake was reduced by 46.4% in GAT2-silenced hepatocytes corresponding to the reduction in GAT2 protein (Figure 2F).

[3] = molecular target: T1, GAT2 (γ-aminobutyric acid transporter 2, SLC6A13); format: cell-based; settings: xenopus oocytes
[4] = substrate: N=C(N)NCC(=O)O; test: cells, lysate or membranes; format: cell-based, Rattus norvegicus; settings: Na+ and Cl-

| Molecule | remaining activity at 5000 µM [1] [%] | [14C]creatine uptake by GAT2-expressing oocytes; also 57.3% of control [14C]GAA [3] | activity at 2000 µM [2] [%] | Km [4] [µM] |
| --- | --- | --- | --- | --- |
| CN(CC(=O)O)C(=N)N [Creatine] | 57.3 ± 8.3 | 28 fold over water-injected oocytes |  |  |
| NCC(=O)O [Glycine] |  |  | 54.4 ± 11.2 |  |
| [H]/N=C(/N)NCC(=O)O [Guanidinoacetic acid] |  |  | 24.1 ± 1.1 |  |
| N[C@@H](CO)C(=O)O [L-Serine] |  |  | 83.8 ± 6.4 |  |
| O=C(O)C1CCCNC1 (stereo not drawn) [Nipecotic acid] | 11.9 ± 1.5 |  | 30.8 ± 1.2 |  |
| NCCC(=O)O [β-Alanine] |  |  | 28.5 ± 5.5 |  |
| GAT2 (γ-aminobutyric acid transporter 2, SLC6A13) (Rattus norvegicus) (protein, rat GAT2 open reading frame cRNA expressed in Xenopus laevis oocytes) MDNRVSGTTSNGETKPVCPVMEKVEEDGTLEREQWTNKMEFVLSVAGEIIGLGNVWRFPYLCYKNGGGAFFIPYLIFLFTCGIPVFFLETALGQYTNQGGITAWRKICPIFEGIGYASQMIVSLLNVYYIVVLAWALFYLFSSFTTDLPWGSCSHEWNTENCVEFQKTNNSLNVTSENATSPVIEFWERRVLKISDGIQHLGSLRWELVLCLLLAWIICYFCIWKGVKSTGKVVYFTATFPYLMLVVLLIRGVTLPGAAQGIQFYLYPNITRLWDPQVWMDAGTQIFFSFAICLGCLTALGSYNKYHNNCYRDCVALCILNSSTSFVAGFAIFSILGFMSQEQGVPISEVAESGPGLAFIAYPRAVVMLPFSPLWACCFFFMVVLLGLDSQFVCVESLVTALVDMYPRVFRKKNRREILILIVSVVSFFIGLIMLTEGGMYVFQLFDYYAASGMCLLFVAIFESLCVAWVYGASRFYDNIEDMIGYKPWPLIKYCWLFFTPAVCLATFLFSLIKYTPLTYNKKYTYPWWGDALGWLLALSSMVCIPAWSIYKLRTLKGPLRERLRQLVCPAEDLPQKSQPELTSPATPMTSLLRLTELESNC |  |  |  | 78.9 |

Continued, in another order:

| remaining activity at 5000 µM [1] [%] | [14C]creatine uptake by GAT2-expressing oocytes; also 57.3% of control [14C]GAA [3] | Molecule | activity at 2000 µM [2] [%] | Km [4] [µM] |
| --- | --- | --- | --- | --- |
| 96.7 ± 7.4 |  | C[N+](C)(C)CC(=O)O [Betaine] | 64.4 ± 8.7 |  |
| 147 ± 18 |  | CN1CC(=O)NC1=N [Creatinine] | 75.3 ± 8.9 |  |
| 1.74 ± 0.44 |  | NCCCC(=O)O [GABA] | 17.1 ± 1.6 |  |
| 11 ± 1.2 |  | N=C(N)NCCS(=O)(=O)O [Guanidinoethansulfonic acid] | 33 ± 4.4 |  |
| 148 ± 11 |  | NC(N)=N[C@@H](CC(=O)O)C(=O)O [Guanidinosuccinic acid] | 71.2 ± 5.1 |  |
| 138 ± 18 |  | C[C@H](N)C(=O)O [L-Alanine] | 59.6 ± 7.8 |  |
| 137 ± 15 |  | N=C(N)NCCC[C@H](N)C(=O)O [L-Arginine] | 74.9 ± 11.1 |  |
| 16.6 ± 4.4 |  | NCCS(=O)(=O)O [Taurine] |  |  |
| 0.81 ± 0.07 |  | [H]/N=C(\N)NCCC(=O)O [β-Guanidinopropionic acid] | 18.9 ± 0.9 |  |
| 2.35 ± 0.23 |  | N=C(N)NCCCC(=O)O [γ-Guanidinobutyric acid] |  |  |
